SMILES strings stand for the structures.

In the assay the target is T1, hM5 (human Muscarinic receptor subtype 5) (Homo sapiens, UniProt P08912).
T1 construct: expressed in transfected cells; host or cells: CHO cells (ATCC)
T1 sequence (P08912 1-532): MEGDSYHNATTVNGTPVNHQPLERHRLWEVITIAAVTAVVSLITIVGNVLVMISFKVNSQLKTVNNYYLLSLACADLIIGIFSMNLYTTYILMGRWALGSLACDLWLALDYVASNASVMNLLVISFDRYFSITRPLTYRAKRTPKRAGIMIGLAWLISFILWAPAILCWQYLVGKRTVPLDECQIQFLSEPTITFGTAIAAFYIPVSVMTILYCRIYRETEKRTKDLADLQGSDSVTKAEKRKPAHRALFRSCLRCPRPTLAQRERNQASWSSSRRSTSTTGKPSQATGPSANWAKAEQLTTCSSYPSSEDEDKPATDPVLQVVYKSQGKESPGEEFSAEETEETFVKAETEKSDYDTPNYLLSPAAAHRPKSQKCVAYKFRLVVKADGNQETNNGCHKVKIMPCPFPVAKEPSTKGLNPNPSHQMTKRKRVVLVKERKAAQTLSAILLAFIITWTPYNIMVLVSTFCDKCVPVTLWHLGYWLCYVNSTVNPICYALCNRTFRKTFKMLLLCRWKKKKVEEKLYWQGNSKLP
Put plainly: Human M5 calcium mobilization FLIPR assay. Type of assay: cell-based. Conditions: CHO cells expressing hM5, Ca2+ release. As to the method:
The compound activity in the present invention (EC50 or IC50) was measured using a 384 plate-based imaging assay that monitors drug induced intracellular Ca^2+ release in whole cells. Activation of hM1 (human Muscarinic receptor subtype 1, gene bank access NM_000738), rM1 (rat Muscarinic receptor subtype 1, gene bank access NM_080773), hM3 (human Muscarinic receptor subtype 3, gene bank access NM_000740NM_000740) and hM5 (human Muscarinic receptor subtype 5, gene bank access NM_0121258), receptors expressed in CHO cells (chinese hamster ovary cells, ATCC) was quantified in a Molecular Devices FLIPR II™ instrument as an increase in fluorescent signal. Inhibition of hM3 and hM5 by compounds was determined by the decrease in fluorescent signal in response to 20 nM carbachol activation.
CHO cells were plated in 384-black polylysine coated plate (Costar) at 8000 cells/well/50 μl for 24 hours or 4000 cells/well for 48 hours in a humidified incubator (5% CO2 and 37° C.) in DMEM/F12 medium without selection agent. Prior to the experiment the cell culture medium was removed from the plates by inversion. A loading solution of 30 μl of Hank's balanced salt solution, 10 mM Hepes and 2.5 mM Probenicid at Ph 7.4 (Cat no. 311-520-VL, Wisent) with 2 μM calcium indicator dye (FLUO-3AM, Molecular Probes F14202) was added to each well. Plates were incubated at 37° C. for 60 minutes prior to start the experiment. The incubation was terminated by washing the cells four times in assay buffer, leaving a residual 25 μl buffer per well. Cell plates were then transferred to the FLIPR, ready for compound additions.
The day of experiment, carbachol and compounds were diluted in three-fold concentration range (10 points serial dilution) for addition by FLIPR instrument. For all calcium assays, a baseline reading was taken for 30 seconds followed by the addition of 12.5 μl (25 μl for hM1 and rM1) of compounds, resulting in a total well volume of 37.5 μl (50 μl for hM1 and rM1). Data were collected every 1.6 seconds for 300 seconds. For hM3 and hM5 an additional 12.5 μl of carbachol (20 nM final) was added at 300 seconds. After this addition of carbachol (producing a final volume of 50 μl), the FLIPR continued to collect data every 2 seconds for 240 seconds. The fluorescence emission was read using filter 1 (emission 520-545 nm) by the FLIPR on board CCD camera.
Calcium mobilization output data were calculated as the maximal relative fluorescence unit (RFU) minus the minal value for both compound and agonist reading frame (except for hM1 and rM1 using only the maximal RFU). Data were analyzed using sigmoidal fits of a non-linear curve-fitting program (XLfit version 5.0.6 from ID Business Solutions Limited, Guildford, UK). All EC50 and IC50 values are reported as arithmetic means±standard error of mean of ‘n’ independent experiments.

Turning to `CCOC(=O)N1CC[C@H](N2CCC(n3c(=O)[nH]c4ccc(F)cc43)CC2)C1` (single isomer, unassigned) [Example 35], the concentration for a half-maximal effect (EC50) came out at 905 nM.
The result for `CCOC(=O)N1CC[C@@H](N2CCC(n3c(=O)[nH]c4ccc(F)cc43)CC2)C1` (single isomer, unassigned) [Example 36] reads > 40000 nM; that for `CCOC(=O)N1CCC(N2CCC(C3C(=O)Nc4ccccc43)CC2)C1` (stereo not drawn) [Example 13, Ethyl 3-[4-(2-oxo-2,3-dihydro-1H-indol-3-yl)piperidin-1-yl]pyrrolidine-1-carboxylate], > 40000 nM.
On to `CCOC(=O)N1CC[C@@H](N2CCC(n3c(=O)[nH]c4ccccc43)CC2)C1` [Example 16, Ethyl (3R)-3-[4-(2-oxo-2,3-dihydro-1H-benzimidazol-1-yl)piperidin-1-yl]pyrrolidine-1-carboxylate], for which the concentration for a half-maximal effect (EC50) is > 40000 nM.
Consider `O=C(C1CCCC1)N1CC[C@H](N2CCC(n3c(=O)[nH]c4ccccc43)CC2)C1` [Example 19, 1-{1-[(3S)-1-(cyclopentylcarbonyl)pyrrolidin-3-yl]piperidin-4-yl}-1,3-dihydro-2H-benzimidazol-2-one], for which the 50% effective concentration (EC50) worked out at 833 nM.
Consider `Cn1c(=O)n(C2CCN([C@H]3CCN(C(=O)CCN4CCCC4=O)C3)CC2)c2ccccc21` [Example 24, 1-methyl-3-(1-{(3S)-1-[3-(2-oxopyrrolidin-1-yl)propanoyl]pyrrolidin-3-yl}piperidin-4-yl)-1,3-dihydro-2H-benzimidazol-2-one], for which the concentration giving a half-maximal response (EC50) is > 40000 nM.
As to `CCOC(=O)N1CC[C@H](N2CCC(N3C(=O)Cc4ccccc43)CC2)C1` [Example 26, Ethyl (3S)-3-[4-(2-oxo-2,3-dihydro-1H-indol-1-yl)piperidin-1-yl]pyrrolidine-1-carboxylate], the concentration giving a half-maximal response (EC50) came out at 341 nM.
The result for `O=C1CCCN1CCC(=O)N1CC[C@H](N2CCC(N3C(=O)Cc4ccccc43)CC2)C1` [Example 29, 1-(1-{(3S)-1-[3-(2-oxopyrrolidin-1-yl)propanoyl]pyrrolidin-3-yl}piperidin-4-yl)-1,3-dihydro-2H-indol-2-one] reads 708 nM; that for `CCOC(=O)N1CC[C@H](N2CCC(n3c(=O)[nH]c4ccc(C#N)cc43)CC2)C1` [Example 41, Ethyl (3S)-3-[4-(6-cyano-2-oxo-2,3-dihydro-1H-benzimidazol-1-yl)piperidin-1-yl]pyrrolidine-1-carboxylate], 534 nM.

For the origin of these results see patent US20100173935A1, “Muscarinic Receptor Agonists that are Effective in the Treatment of Pain, Alzheimer's Disease and Schizophrenia” (AstraZeneca AB, priority 2006, published 2010).
